Patent publication US8263598B2, “Substituted sulfonamide compounds” (Gruenenthal GmbH, priority 2008, dated 2012)

Experiments:
[1] = molecular target: T1, human B1R receptor (hB1R) (Homo sapiens, UniProt P46663); experiment: FLIPR Ca2+ assay on human bradykinin 1 receptor (CHO K1 hB1R cells); type: cell-based; details: test substance 10 μM; CHO K1 cells with human B1R gene; agonist Lys-Des-Arg9-bradykinin 0.5 nM; compared to maximum achievable inhibition
T1 construct: host or cells: CHO K1 cells
T1 sequence (P46663 1-353): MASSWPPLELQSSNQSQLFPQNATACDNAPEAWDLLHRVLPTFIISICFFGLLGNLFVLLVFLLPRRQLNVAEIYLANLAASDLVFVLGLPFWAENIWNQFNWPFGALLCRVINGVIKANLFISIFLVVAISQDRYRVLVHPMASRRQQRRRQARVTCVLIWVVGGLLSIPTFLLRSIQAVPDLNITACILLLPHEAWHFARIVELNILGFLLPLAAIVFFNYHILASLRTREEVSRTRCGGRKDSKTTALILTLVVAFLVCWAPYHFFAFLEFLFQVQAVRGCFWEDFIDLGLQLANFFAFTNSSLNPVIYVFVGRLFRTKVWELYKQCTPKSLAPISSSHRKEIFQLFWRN
Summary of the method: (§1)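 CHO K1 cells stably expressing human or rat B1R were loaded with Fluo-4 and tested at 10 μM compound. Ca²⁺ signal was read in FLIPR as % activation versus agonist. After 10 min, agonist was added (hB1R: Lys-Des-Arg9-bradykinin 0.5 nM; rB1R: Des-Arg9-bradykinin 100 nM), and % inhibition was taken relative to maximum achievable inhibition.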

[2] = molecular target: T2, B1R receptor of rats (rB1R) (Rattus norvegicus, UniProt P97583); experiment: FLIPR Ca2+ assay on rat bradykinin 1 receptor (CHO K1 rB1R cells); type: cell-based; details: test substance 10 μM; CHO K1 cells with B1R gene of rats; agonist Des-Arg9-bradykinin 100 nM; compared to maximum achievable inhibition
T2 construct: host or cells: CHO K1 cells
T2 sequence (P97583 1-337): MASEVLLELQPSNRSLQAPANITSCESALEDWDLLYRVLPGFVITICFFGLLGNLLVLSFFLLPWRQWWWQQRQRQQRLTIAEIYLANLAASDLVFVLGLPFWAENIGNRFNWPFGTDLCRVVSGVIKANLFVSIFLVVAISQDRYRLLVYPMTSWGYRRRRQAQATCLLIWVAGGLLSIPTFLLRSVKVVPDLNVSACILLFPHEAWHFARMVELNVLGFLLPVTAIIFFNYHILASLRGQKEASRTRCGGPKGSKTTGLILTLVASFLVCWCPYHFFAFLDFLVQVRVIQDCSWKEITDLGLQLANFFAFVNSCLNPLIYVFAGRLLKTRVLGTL
Summary of the method: as §1

Compound | inhibition at 10 µM [1] [%] | inhibition at 10 µM [2] [%]
COc1cc(C)c(S(=O)(=O)N(C)CCOCC(=O)N2CCn3cccc3C2C(C)(C)C)c(C)c1C (stereo not drawn) [Example 79, N-(2-(2-(1-tert-butyl-3,4-dihydropyrrolo[1,2-a]pyrazin-2(1H)-yl)-2-oxoethoxy)ethyl)-4-methoxy-N,2,3,6-tetramethylbenzenesulfonamide] | 101 | 100
COc1cc(C)c(S(=O)(=O)N(C)CCOCC(=O)N2CCn3cccc3C2C)c(C)c1C (stereo not drawn) [Example 80, 4-methoxy-N,2,3,6-tetramethyl-N-(2-(2-(1-methyl-3,4-dihydropyrrolo[1,2-a]pyrazin-2(1H)-yl)-2-oxoethoxy)ethyl)benzenesulfonamide] | 99 | 97
COc1cc(C)c(S(=O)(=O)N(C)CCOCC(=O)N2CCn3cccc3C2c2cccnc2)c(C)c1C (stereo not drawn) [Example 81, 4-methoxy-N,2,3,6-tetramethyl-N-(2-(2-oxo-2-(1-(pyridin-3-yl)-3,4-dihydropyrrolo[1,2-a]pyrazin-2(1H)-yl)ethoxy)ethyl)benzenesulfonamide] | 98 | 99
COc1cc(C)c(S(=O)(=O)N(C)CCOCC(=O)N2CCn3cccc3C2c2ccc(Cl)nc2)c(C)c1C (stereo not drawn) [Example 82, N-(2-(2-(1-(6-chloropyridin-3-yl)-3,4-dihydropyrrolo[1,2-a]pyrazin-2(1H)-yl)-2-oxoethoxy)ethyl)-4-methoxy-N,2,3,6-tetramethylbenzenesulfonamide] | 101 | 99
COc1ccc(C2c3cccn3CCN2C(=O)COCCN(C)S(=O)(=O)c2c(C)cc(OC)c(C)c2C)cc1 (stereo not drawn) [Example 83, 4-methoxy-N-(2-(2-(1-(4-methoxyphenyl)-3,4-dihydropyrrolo[1,2-a]pyrazin-2(1H)-yl)-2-oxoethoxy)ethyl)-N,2,3,6-tetramethylbenzenesulfonamide] | 101 | 100
COc1cc(C)c(S(=O)(=O)N(C)CCOCC(=O)N2CCn3cccc3C2c2ccccc2)c(C)c1C (stereo not drawn) [Example 84, 4-methoxy-N,2,3,6-tetramethyl-N-(2-(2-oxo-2-(1-phenyl-3,4-dihydropyrrolo[1,2-a]pyrazin-2(1H)-yl)ethoxy)ethyl)benzenesulfonamide] | 101 | 99
COc1cc(C)c(S(=O)(=O)N(C)CCOCC(=O)N2CCn3cccc3C2c2ccc(F)c(F)c2)c(C)c1C (stereo not drawn) [Example 85, N-(2-(2-(1-(3,4-difluorophenyl)-3,4-dihydropyrrolo[1,2-a]pyrazin-2(1H)-yl)-2-oxoethoxy)ethyl)-4-methoxy-N,2,3,6-tetramethylbenzenesulfonamide] | 99 | 92
COc1cc(C)c(S(=O)(=O)N(C)CCOCC(=O)N2CCn3cccc3C2c2ccc(C)c(C)c2)c(C)c1C (stereo not drawn) [Example 86, N-(2-(2-(1-(3,4-dimethylphenyl)-3,4-dihydropyrrolo[1,2-a]pyrazin-2(1H)-yl)-2-oxoethoxy)ethyl)-4-methoxy-N,2,3,6-tetramethylbenzenesulfonamide] | 91 | 71
COc1cc(C)c(S(=O)(=O)N(C)CCOCC(=O)N2CCn3cccc3C2c2cccc(F)c2)c(C)c1C (stereo not drawn) [Example 87, N-(2-(2-(1-(3-fluorophenyl)-3,4-dihydropyrrolo[1,2-a]pyrazin-2(1H)-yl)-2-oxoethoxy)ethyl)-4-methoxy-N,2,3,6-tetramethylbenzenesulfonamide] | 101 | 100
COc1cc(C)c(S(=O)(=O)N(C)CCOCC(=O)N2CCn3cccc3C2c2cccs2)c(C)c1C (stereo not drawn) [Example 88, 4-methoxy-N,2,3,6-tetramethyl-N-(2-(2-oxo-2-(1-(thiophen-2-yl)-3,4-dihydropyrrolo[1,2-a]pyrazin-2(1H)-yl)ethoxy)ethyl)benzenesulfonamide] | 101 | 98
COc1cccc(C2c3cccn3CCN2C(=O)COCCN(C)S(=O)(=O)c2c(C)cc(OC)c(C)c2C)c1 (stereo not drawn) [Example 89, 4-methoxy-N-(2-(2-(1-(3-methoxyphenyl)-3,4-dihydropyrrolo[1,2-a]pyrazin-2(1H)-yl)-2-oxoethoxy)ethyl)-N,2,3,6-tetramethylbenzenesulfonamide] | 100 | 98
COc1cc(C)c(S(=O)(=O)N(C)CCOCC(=O)N2CCn3cccc3C2c2ccc(C(C)(C)C)cc2)c(C)c1C (stereo not drawn) [Example 90, N-(2-(2-(1-(4-tert-butylphenyl)-3,4-dihydropyrrolo[1,2-a]pyrazin-2(1H)-yl)-2-oxoethoxy)ethyl)-4-methoxy-N,2,3,6-tetramethylbenzenesulfonamide] | 47 | 66
COc1cc(C)c(S(=O)(=O)N(CCOCC(=O)N2CCn3c(CN(C)C)ccc3C2c2ccccc2)CC(C)C)c(C)c1C (stereo not drawn) [Example 91, N-(2-(2-(6-((dimethylamino)methyl)-1-phenyl-3,4-dihydropyrrolo[1,2-a]pyrazin-2(1H)-yl)-2-oxoethoxy)ethyl)-N-isobutyl-4-methoxy-2,3,6-trimethylbenzene-sulfonamide] | 103 | 103
COc1cc(C)c(S(=O)(=O)N(CCOCC(=O)N2CCn3c(CN4CCCC4)ccc3C2c2ccccc2)CC(C)C)c(C)c1C (stereo not drawn) [Example 92, N-isobutyl-4-methoxy-2,3,6-trimethyl-N-(2-(2-oxo-2-(1-phenyl-6-(pyrrolidin-1-ylmethyl)-3,4-dihydropyrrolo[1,2-a]pyrazin-2(1H)-yl)ethoxy)ethyl)benzene-sulfonamide] | 102 | 102
COc1cc(C)c(S(=O)(=O)N(CCOCC(=O)N2CCn3c(CN4CCCCC4)ccc3C2c2ccccc2)CC(C)C)c(C)c1C (stereo not drawn) [Example 93, N-isobutyl-4-methoxy-2,3,6-trimethyl-N-(2-(2-oxo-2-(1-phenyl-6-(piperidin-1-ylmethyl)-3,4-dihydropyrrolo[1,2-a]pyrazin-2(1H)-yl)ethoxy)ethyl)benzene-sulfonamide] | 103 | 102
COc1cc(C)c(S(=O)(=O)N(CCOCC(=O)N2CCn3c(CN4CCOCC4)ccc3C2c2ccccc2)CC(C)C)c(C)c1C (stereo not drawn) [Example 94, N-isobutyl-4-methoxy-2,3,6-trimethyl-N-(2-(2-(6-(morpholinomethyl)-1-phenyl-3,4-dihydropyrrolo[1,2-a]pyrazin-2(1H)-yl)-2-oxoethoxy)ethyl)benzene-sulfonamide] | 104 | 102
COc1cc(C)c(S(=O)(=O)N(CCOCC(=O)N2CCn3c(CN(C)C)ccc3C2Cc2ccccc2)CC(C)C)c(C)c1C (stereo not drawn) [Example 95, N-(2-(2-(1-benzyl-6-((dimethylamino)methyl)-3,4-dihydropyrrolo[1,2-a]pyrazin-2(1H)-yl)-2-oxoethoxy)ethyl)-N-isobutyl-4-methoxy-2,3,6-trimethylbenzene-sulfonamide] | 101 | 101
COc1cc(C)c(S(=O)(=O)N(CCOCC(=O)N2CCn3c(CN(C)C)ccc3C2CCc2ccccc2)CC(C)C)c(C)c1C (stereo not drawn) [Example 96, N-(2-(2-(6-((dimethylamino)methyl)-1-phenethyl-3,4-dihydropyrrolo[1,2-a]pyrazin-2(1H)-yl)-2-oxoethoxy)ethyl)-N-isobutyl-4-methoxy-2,3,6-trimethyl-benzenesulfonamide] | 102 | 101
CCCCC1c2ccc(CN(C)C)n2CCN1C(=O)COCCN(CC(C)C)S(=O)(=O)c1c(C)cc(OC)c(C)c1C (stereo not drawn) [Example 97, N-(2-(2-(1-butyl-6-((dimethylamino)methyl)-3,4-dihydropyrrolo[1,2-a]pyrazin-2(1H)-yl)-2-oxoethoxy)ethyl)-N-isobutyl-4-methoxy-2,3,6-trimethylbenzene-sulfonamide] | 89 | 102
COc1cc(C)c(S(=O)(=O)N(CCOCC(=O)N2CCn3c(CN(C)C)ccc3C2c2cccs2)CC(C)C)c(C)c1C (stereo not drawn) [Example 98, N-(2-(2-(6-((dimethylamino)methyl)-1-(thiophen-2-yl)-3,4-dihydropyrrolo[1,2-a]pyrazin-2(1H)-yl)-2-oxoethoxy)ethyl)-N-isobutyl-4-methoxy-2,3,6-trimethyl-benzenesulfonamide] | 101 | 102
CCC1c2ccc(CN(C)C)n2CCN1C(=O)COCCN(CC(C)C)S(=O)(=O)c1c(C)cc(OC)c(C)c1C (stereo not drawn) [Example 99, N-(2-(2-(6-((dimethylamino)methyl)-1-ethyl-3,4-dihydropyrrolo[1,2-a]pyrazin-2(1H)-yl)-2-oxoethoxy)ethyl)-N-isobutyl-4-methoxy-2,3,6-trimethylbenzene-sulfonamide] | 102 | 101
